Test results from patent US20260234129A1, “NOVEL IMIDAZOLE DERIVATIVE AND USE THEREOF” (PELEMED CO., LTD., priority 2023, published 2026).

Columns and labels:
Test in all cases: scanMax kinase panel (Eurofins)
Type in all cases: binding
[1] = biological target: T1, ABL1(F317I)-phosphorylated (Homo sapiens, UniProt P00519, F317I); details: read-out: % control
T1 construct: purchased Eurofins
Method: (§1) The following assay method was performed to evaluate the inhibitory activities of a compound according to the present invention with respect to various enzymes. […] The compound was applied to the enzyme at a concentration of 1 μM, dissolved in DMSO, and the % control was determined according to Equation 1 below.
(§2) Here, the positive control refers to a compound corresponding to 0% control, and the negative control refers to a compound corresponding to 100% control.

[2] = biological target: T2, ABL1(F317L)-phosphorylated (Homo sapiens, UniProt P00519, F317L); details: read-out: % control
T2 construct: purchased Eurofins
Method: as §1, §2

[3] = biological target: T3, ABL1(M351T)-phosphorylated (Homo sapiens, UniProt P00519, M351T); details: read-out: % control
T3 construct: purchased Eurofins
Method: as §1, §2

[4] = biological target: T4, ABL1(Q252H)-phosphorylated (Homo sapiens, UniProt P00519, Q252H); details: read-out: % control
T4 construct: purchased Eurofins
Method: as §1, §2

[5] = biological target: T5, ABL1(T315I)-nonphosphorylated (Homo sapiens, UniProt P00519, T315I); details: read-out: % control
T5 construct: purchased Eurofins
Method: as §1, §2

[6] = biological target: T6, ABL1(T315I)-phosphorylated (Homo sapiens, UniProt P00519, T315I); details: read-out: % control
T6 construct: purchased Eurofins
Method: as §1, §2

ABL1-nonphosphorylated = biological target: T7, ABL1-nonphosphorylated (Homo sapiens, UniProt P00519); details: read-out: % control
T7 construct: purchased Eurofins
Method: as §1, §2

AURKA = biological target: T8, AURKA (Homo sapiens, UniProt O14965); details: read-out: % control
T8 construct: purchased Eurofins
Method: as §1, §2

AURKC = biological target: T9, AURKC (Homo sapiens, UniProt Q9UQB9); details: read-out: % control
T9 construct: purchased Eurofins
Method: as §1, §2

AXL = biological target: T10, AXL (Homo sapiens, UniProt P30530); details: read-out: % control
T10 construct: purchased Eurofins
Method: as §1, §2

CDK2 = biological target: T11, CDK2 (Homo sapiens, UniProt P24941); details: CDK2, 1 μM; read-out: % control
T11 construct: purchased Eurofins
Method: as §1, §2

CDK4-cycllinDl = biological target: T12, CDK4-cycllinDl (Homo sapiens, UniProt P11802); details: read-out: % control
T12 construct: purchased Eurofins
Method: as §1, §2

CDK5 = biological target: T13, CDK5 (Homo sapiens, UniProt Q00535); details: CDK5, 1 μM; read-out: % control
T13 construct: purchased Eurofins scanMax® kinase panel
Method: as §1, §2

DYRKIA = biological target: T14, DYRKIA (Homo sapiens, UniProt Q13627); details: read-out: % control
T14 construct: purchased Eurofins scanMax® kinase panel
Method: as §1, §2

ERK1 = biological target: T15, ERK1 (Homo sapiens, UniProt P27361); details: ERK1, 1 μM; read-out: % control
T15 construct: purchased Eurofins scanMax® kinase panel
Method: as §1, §2

ERK2 = biological target: T16, ERK2 (Homo sapiens, UniProt P28482); details: ERK2, 1 μM; read-out: % control
T16 construct: purchased Eurofins scanMax® kinase panel
Method: as §1, §2

ERK8 = biological target: T17, ERK8 (Homo sapiens, UniProt Q8TD08); details: ERK8, 1 μM; read-out: % control
T17 construct: purchased Eurofins scanMax® kinase panel
Method: as §1, §2

HIPK4 = biological target: T18, HIPK4 (Homo sapiens, UniProt Q8NE63); details: HIPK4, 1 μM; read-out: % control
T18 construct: purchased Eurofins
Method: as §1, §2

IRAKI = biological target: T19, IRAKI (Homo sapiens, UniProt P51617); details: read-out: % control
T19 construct: purchased Eurofins
Method: as §1, §2

[7] = biological target: T20, JAK1(JH2domain-pseudokinase) (Homo sapiens, UniProt P23458); details: read-out: % control
T20 construct: JAK1(JH2domain-pseudokinase); purchased Eurofins
Method: as §1, §2

[8] = biological target: T21, JAK2(JH1domain-catalytic) (Homo sapiens, UniProt O60674); details: read-out: % control
T21 construct: JAK2(JH1domain-catalytic); purchased Eurofins
Method: as §1, §2

[9] = biological target: T22, JAK3(JH1domain-catalytic) (Homo sapiens, UniProt P52333); details: read-out: % control
T22 construct: JAK3(JH1domain-catalytic); purchased Eurofins
Method: as §1, §2

KIT(D816V) = biological target: T23, KIT(D816V) (Homo sapiens, UniProt P10721, D816V); details: read-out: % control
T23 construct: purchased Eurofins
Method: as §1, §2

KIT(L576P) = biological target: T24, KIT(L576P) (Homo sapiens, UniProt P10721, L576P); details: read-out: % control
T24 construct: purchased Eurofins
Method: as §1, §2

KIT(V559D) = biological target: T25, KIT(V559D) (Homo sapiens, UniProt P10721, V559D); details: read-out: % control
T25 construct: purchased Eurofins
Method: as §1, §2

KIT(V559D, T670I) = biological target: T26, KIT(V559D, T670I) (Homo sapiens, UniProt P10721, T670I/V559D); details: read-out: % control
T26 construct: purchased Eurofins
Method: as §1, §2

KIT(V559D, V654A) = biological target: T27, KIT(V559D, V654A) (Homo sapiens, UniProt P10721, V559D/V654A); details: read-out: % control
T27 construct: purchased Eurofins
Method: as §1, §2

MEK3 = biological target: T28, MEK3 (Homo sapiens, UniProt P46734); details: MEK3, 1 μM; read-out: % control
T28 construct: purchased Eurofins
Method: as §1, §2

MEK5 = biological target: T29, MEK5 (Homo sapiens, UniProt Q13163); details: MEK5, 1 μM; read-out: % control
T29 construct: purchased Eurofins scanMax kinase panel
Method: as §1, §2

MEKI = biological target: T30, MEKI (Homo sapiens, UniProt Q02750); details: read-out: % control
T30 construct: purchased Eurofins
Method: as §1, §2

PAK4 = biological target: T31, PAK4 (Homo sapiens, UniProt O96013); details: PAK4, 1 μM; read-out: % control
T31 construct: purchased Eurofins scanMax kinase panel
Method: as §1, §2

PAK7 = biological target: T32, PAK7 (Homo sapiens, UniProt Q9P286); details: PAK7, 1 μM; read-out: % control
T32 construct: purchased Eurofins scanMax kinase panel
Method: as §1, §2

PAKI = biological target: T33, PAKI (Homo sapiens, UniProt Q13153); details: read-out: % control
T33 construct: purchased Eurofins scanMax kinase panel
Method: as §1, §2

TRKB = biological target: T34, TRKB (Homo sapiens, UniProt Q16620); details: read-out: % control
T34 construct: purchased Eurofins scanMax kinase panel
Method: as §1, §2

Measured: remaining binding at 1 µM

T19 sequence (P51617 whole entry): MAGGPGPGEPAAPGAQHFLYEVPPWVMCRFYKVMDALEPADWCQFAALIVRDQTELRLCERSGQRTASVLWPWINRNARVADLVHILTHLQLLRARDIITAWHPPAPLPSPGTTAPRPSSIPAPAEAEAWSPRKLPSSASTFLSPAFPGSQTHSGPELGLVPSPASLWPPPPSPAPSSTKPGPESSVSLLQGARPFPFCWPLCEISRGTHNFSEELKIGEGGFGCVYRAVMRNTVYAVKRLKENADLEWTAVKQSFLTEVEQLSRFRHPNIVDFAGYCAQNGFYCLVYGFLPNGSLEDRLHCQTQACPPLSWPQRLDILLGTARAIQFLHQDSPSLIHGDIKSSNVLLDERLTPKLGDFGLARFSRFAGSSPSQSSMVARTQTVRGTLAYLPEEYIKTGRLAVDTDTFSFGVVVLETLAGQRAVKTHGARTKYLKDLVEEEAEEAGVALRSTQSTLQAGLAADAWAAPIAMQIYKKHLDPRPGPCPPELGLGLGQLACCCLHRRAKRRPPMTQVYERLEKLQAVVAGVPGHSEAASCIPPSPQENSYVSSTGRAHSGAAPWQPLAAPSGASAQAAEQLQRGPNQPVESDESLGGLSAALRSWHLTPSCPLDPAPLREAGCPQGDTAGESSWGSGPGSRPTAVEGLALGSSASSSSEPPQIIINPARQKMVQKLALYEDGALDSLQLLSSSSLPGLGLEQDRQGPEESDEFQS
T10 sequence (P30530 26-894): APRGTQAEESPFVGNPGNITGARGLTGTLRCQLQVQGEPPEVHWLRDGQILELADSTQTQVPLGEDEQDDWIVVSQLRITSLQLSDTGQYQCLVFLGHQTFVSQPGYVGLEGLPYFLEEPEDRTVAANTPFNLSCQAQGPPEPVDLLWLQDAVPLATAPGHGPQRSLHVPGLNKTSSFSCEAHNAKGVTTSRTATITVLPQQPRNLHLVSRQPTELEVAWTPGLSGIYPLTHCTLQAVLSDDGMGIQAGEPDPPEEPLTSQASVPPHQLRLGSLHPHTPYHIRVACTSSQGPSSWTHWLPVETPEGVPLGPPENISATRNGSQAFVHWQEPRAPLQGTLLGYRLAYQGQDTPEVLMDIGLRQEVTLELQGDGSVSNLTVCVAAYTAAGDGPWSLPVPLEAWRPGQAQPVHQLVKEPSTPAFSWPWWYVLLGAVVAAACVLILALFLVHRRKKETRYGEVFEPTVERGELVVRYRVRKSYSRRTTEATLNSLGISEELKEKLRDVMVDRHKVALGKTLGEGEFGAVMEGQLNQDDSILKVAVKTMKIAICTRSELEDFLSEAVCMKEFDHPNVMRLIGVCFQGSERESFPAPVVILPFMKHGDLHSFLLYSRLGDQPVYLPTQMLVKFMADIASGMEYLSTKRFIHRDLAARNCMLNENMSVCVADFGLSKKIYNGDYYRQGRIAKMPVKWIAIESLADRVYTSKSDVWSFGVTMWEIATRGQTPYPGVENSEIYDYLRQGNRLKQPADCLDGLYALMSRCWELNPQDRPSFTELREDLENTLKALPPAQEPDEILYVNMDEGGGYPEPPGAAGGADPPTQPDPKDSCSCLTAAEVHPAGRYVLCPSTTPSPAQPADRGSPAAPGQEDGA
T12 sequence (P11802 whole entry): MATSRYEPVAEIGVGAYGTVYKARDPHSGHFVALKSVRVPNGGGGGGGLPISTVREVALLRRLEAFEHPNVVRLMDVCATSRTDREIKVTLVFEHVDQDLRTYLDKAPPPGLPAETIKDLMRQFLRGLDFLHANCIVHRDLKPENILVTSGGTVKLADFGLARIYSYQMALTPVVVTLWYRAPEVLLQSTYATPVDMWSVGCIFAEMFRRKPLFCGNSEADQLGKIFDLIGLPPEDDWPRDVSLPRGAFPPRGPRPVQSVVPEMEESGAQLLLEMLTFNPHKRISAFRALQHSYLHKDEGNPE
T12 sequence (P24385 whole entry partner): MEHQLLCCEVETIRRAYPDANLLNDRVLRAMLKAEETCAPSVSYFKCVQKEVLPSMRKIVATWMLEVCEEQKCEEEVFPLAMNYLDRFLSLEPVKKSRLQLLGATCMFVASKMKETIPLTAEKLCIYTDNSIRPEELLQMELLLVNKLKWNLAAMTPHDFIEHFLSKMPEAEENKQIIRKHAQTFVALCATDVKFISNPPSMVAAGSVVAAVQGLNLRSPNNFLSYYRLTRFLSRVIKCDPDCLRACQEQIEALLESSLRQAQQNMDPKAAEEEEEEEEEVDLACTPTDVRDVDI
T21 sequence (O60674 849-1124 limits assumed): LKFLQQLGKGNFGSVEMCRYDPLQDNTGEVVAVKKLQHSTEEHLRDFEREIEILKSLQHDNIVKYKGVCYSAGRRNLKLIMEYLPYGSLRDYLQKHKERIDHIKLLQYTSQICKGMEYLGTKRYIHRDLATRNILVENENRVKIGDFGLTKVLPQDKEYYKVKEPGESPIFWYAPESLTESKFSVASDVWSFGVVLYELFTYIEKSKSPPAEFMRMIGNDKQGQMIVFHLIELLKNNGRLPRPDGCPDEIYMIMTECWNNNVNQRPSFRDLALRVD
T28 sequence (P46734 whole entry): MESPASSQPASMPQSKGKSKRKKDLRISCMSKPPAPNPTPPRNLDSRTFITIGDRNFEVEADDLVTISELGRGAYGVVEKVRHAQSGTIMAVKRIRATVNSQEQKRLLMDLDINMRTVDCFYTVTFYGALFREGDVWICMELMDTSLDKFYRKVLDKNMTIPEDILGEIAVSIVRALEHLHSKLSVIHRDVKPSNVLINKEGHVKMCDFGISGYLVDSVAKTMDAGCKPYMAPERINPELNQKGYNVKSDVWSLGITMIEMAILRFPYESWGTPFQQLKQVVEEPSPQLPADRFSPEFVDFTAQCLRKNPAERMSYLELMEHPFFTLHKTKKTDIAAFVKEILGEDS
T20 sequence (P23458 583-855 limits assumed): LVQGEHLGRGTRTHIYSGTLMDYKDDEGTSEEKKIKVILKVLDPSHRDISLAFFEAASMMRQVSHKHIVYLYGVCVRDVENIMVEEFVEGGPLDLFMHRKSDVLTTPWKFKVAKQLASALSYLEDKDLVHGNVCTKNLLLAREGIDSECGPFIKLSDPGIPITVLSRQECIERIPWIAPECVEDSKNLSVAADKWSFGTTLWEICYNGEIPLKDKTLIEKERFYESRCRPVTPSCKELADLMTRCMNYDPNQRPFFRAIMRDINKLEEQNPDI
T32 sequence (Q9P286 whole entry): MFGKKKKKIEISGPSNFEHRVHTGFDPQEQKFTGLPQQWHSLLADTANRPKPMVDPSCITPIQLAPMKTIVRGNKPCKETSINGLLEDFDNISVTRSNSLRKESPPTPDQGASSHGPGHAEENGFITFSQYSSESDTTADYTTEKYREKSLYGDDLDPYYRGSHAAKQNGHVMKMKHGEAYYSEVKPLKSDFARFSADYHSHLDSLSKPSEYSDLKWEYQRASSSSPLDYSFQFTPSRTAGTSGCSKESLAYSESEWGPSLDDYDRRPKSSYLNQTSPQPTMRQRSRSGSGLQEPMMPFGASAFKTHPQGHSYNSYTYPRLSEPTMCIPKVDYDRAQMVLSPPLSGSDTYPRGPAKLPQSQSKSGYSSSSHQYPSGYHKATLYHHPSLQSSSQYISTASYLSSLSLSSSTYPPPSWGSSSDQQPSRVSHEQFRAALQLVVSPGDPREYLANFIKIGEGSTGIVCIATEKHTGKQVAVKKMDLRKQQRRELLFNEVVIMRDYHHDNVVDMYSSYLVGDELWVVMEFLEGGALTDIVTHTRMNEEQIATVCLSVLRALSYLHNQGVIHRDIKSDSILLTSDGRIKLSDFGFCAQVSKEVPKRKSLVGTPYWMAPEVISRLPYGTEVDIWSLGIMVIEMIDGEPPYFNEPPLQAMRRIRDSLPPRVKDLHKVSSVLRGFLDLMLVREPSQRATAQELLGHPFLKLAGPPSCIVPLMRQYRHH
T13 sequence (Q00535 whole entry): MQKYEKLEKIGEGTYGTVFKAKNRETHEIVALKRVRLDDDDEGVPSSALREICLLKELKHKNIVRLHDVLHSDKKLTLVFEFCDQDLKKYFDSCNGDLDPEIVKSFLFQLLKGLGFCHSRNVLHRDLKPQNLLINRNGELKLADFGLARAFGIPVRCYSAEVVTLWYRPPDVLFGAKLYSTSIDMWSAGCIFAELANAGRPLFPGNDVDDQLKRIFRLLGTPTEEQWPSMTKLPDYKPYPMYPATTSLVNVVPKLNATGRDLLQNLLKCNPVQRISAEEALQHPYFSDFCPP
T29 sequence (Q13163 whole entry): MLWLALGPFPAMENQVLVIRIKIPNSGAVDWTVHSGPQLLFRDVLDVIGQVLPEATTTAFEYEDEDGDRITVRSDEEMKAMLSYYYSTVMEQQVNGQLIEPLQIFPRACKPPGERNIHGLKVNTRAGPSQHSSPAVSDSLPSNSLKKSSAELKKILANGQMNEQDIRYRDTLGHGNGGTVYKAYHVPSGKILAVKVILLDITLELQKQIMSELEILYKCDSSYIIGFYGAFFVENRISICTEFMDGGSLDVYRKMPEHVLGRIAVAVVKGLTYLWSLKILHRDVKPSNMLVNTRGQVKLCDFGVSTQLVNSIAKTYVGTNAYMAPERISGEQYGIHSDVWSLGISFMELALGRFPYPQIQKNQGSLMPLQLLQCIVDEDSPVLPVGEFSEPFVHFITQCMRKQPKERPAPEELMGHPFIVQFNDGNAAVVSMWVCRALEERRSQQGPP
T8 sequence (O14965 whole entry): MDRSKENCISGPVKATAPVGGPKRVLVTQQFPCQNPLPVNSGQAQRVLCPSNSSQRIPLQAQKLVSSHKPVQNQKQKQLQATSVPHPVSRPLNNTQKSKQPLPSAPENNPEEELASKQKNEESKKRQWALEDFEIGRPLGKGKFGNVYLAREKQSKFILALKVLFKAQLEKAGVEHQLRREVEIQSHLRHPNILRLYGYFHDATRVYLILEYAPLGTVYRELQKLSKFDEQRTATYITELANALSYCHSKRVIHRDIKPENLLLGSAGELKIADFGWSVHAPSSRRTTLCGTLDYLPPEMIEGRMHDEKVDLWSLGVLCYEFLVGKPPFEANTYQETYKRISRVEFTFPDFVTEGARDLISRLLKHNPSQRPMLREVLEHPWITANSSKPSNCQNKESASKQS

COc1ccc2nc(-c3n[nH]c4ccc(C(=O)N[C@H]5CC[C@H](N)C5)cc34)[nH]c2c1 [Example 32, N-((1S,3S)-3-aminocyclopentyl)-3-(6-methoxy-1H-benzo[d]imidazol-2-yl)-1H-indazole-5-carboxamide]
< 10%: all assays above
